Assay results published in US10106534B2 (CELGENE QUANTICEL RESEARCH, INC., priority 2014, dated 2018).
Structures can show the parent of a compound that is named as a salt.

How the values were obtained:
JMJD2C = JMJD2C (Homo sapiens (Human), UniProt Q9H3R0); test: In vitro enzyme inhibition assay for JMJD2C activity (TR-FRET); type: biochemical
How it was run: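 Baculovirus JMJD2C (AA 2-372), 0.3 nM, with 300 nM biotin-H3K9me3 peptide and 2 μM α-ketoglutarate in HEPES pH 7.3 containing Fe(II) and ascorbate, 30 min at room temperature, 11-point dilutions. H3K9me2 product by TR-FRET (Eu-antibody/streptavidin-APC, 665/615 ratio); IC50 fitted.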

JMJD3 = JMJD3 (Homo sapiens, UniProt O15054); test: In vitro enzyme inhibition assay for JMJD3 activity (TR-FRET); type: biochemical
Description: This assay determines the ability of a test compound to inhibit JMJD3 demethylase activity.
The enzymatic assay of JMJD3 activity is based upon Time Resolved-Fluorescence Resonance Energy Transfer (TR-FRET) detection. […] Reaction product was determined quantitatively by TR-FRET after the addition of detection reagent Phycolink Streptavidin-allophycocyanin (Prozyme) and Europium-anti-di-methylated histone H3 lysine 27 (H3K27me2) antibody (PerkinElmer) in the presence of 5 mM EDTA in LANCE detection buffer (PerkinElmer) at a final concentration of 50 nM and 1 nM, respectively.
The reaction mixture was incubated at room temperature for 30 minutes, and terminated by the addition of 6 μL of 5 mM EDTA in LANCE detection buffer containing 100 nM Phycolink Streptavidin-allophycocyanin and 2 nM Europium-anti-H3K27me2 antibody.

[1] = tested on: KYSE-150 esophageal carcinoma cell line; test: In vitro cell-based assay: cellular proliferation via BrdU incorporation (ELISA); parameters: species or system human; conditions: Homo sapiens, KYSE-150, 168 hours compound incubation
How it was run: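 KYSE-150 cells (JMJD2C-amplified; SMAD4 and TP53 mutant), 2,000/well, were treated after overnight attachment with an 11-point series (100 μM to 2 nM) for 168 h. Proliferation was read by BrdU ELISA (2 h labelling, anti-BrdU-peroxidase, TMB, 450 nm) and IC50 fitted.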

Sequence of JMJD2C (Q9H3R0 2-372): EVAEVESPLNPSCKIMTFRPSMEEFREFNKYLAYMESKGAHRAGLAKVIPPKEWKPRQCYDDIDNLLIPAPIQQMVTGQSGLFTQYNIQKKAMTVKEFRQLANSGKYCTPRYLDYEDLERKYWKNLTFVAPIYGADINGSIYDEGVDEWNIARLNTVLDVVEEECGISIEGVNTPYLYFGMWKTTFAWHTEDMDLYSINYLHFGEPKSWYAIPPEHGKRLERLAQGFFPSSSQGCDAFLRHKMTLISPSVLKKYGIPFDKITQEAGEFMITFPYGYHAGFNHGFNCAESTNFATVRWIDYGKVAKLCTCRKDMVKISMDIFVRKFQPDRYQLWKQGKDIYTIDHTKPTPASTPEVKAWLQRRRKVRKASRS

SMILES	IC50 (JMJD2C)	fold more potent for JMJD3 than the R-enantiomer (JMJD3; S-enantiomer vs R-enantiomer)	IC50 [1]	IC50 (JMJD3)
CN(c1ccccc1)c1ccc2c(c1)CCC[C@@H]2CNc1cnccc1C(=O)O [Example 1, 3-({[(1S)-6-[methyl(phenyl)amino]-1,2,3,4-tetrahydronaphthalen-1-yl]methyl}amino)pyridine-4-carboxylic acid]	1000 to 10000 nM			1000 to 10000 nM
O=C(O)c1ccncc1NC[C@H]1CCOc2cc(-c3ccccc3)ccc21 [Example 83 of U.S. Pat. No. 8,952,151, 3-({[(4S)-7-phenyl-3,4-dihydro-2H-1-benzopyran-4-yl]methyl}amino)pyridine-4-carboxylic acid, reference compound]		> 100 fold		
CN(c1cccc(Cl)c1)c1ccc2c(c1)OCC[C@H]2CNc1cnccc1C(=O)O [Example 110, 3-({[(4R)-7-[(3-chlorophenyl)(methyl)amino]-3,4-dihydro-2H-1-benzopyran-4-yl]methyl}amino)pyridine-4-carboxylic acid]	1000 to 10000 nM		≤ 100 nM	
Cc1cc(-c2ccc3c(c2)CCCC3CNc2cnccc2C(=O)O)ccn1 (stereo not shown) [Example 89, 3-({[6-(2-methylpyridin-4-yl)-1,2,3,4-tetrahydronaphthalen-1-yl]methyl}amino)pyridine-4-carboxylic acid, hydrochloride]	100 to 1000 nM		> 10000 nM	
Cc1cc(N(C)c2ccc3c(c2)CCC[C@H]3CNc2cnccc2C(=O)O)no1 [Example 171, 3-({[(1R)-6-[methyl(5-methyl-1,2-oxazol-3-yl)amino]-1,2,3,4-tetrahydronaphthalen-1-yl]methyl}amino)pyridine-4-carboxylic acid]	1000 to 10000 nM		> 10000 nM	
COCCN(c1ccc(C2CC2)cc1)c1ccc2c(c1)CCC[C@H]2CNc1cnccc1C(=O)O [Example 163, 3-({[(1R)-6-[(4-cyclopropylphenyl)(2-methoxyethyl)amino]-1,2,3,4-tetrahydronaphthalen-1-yl]methyl}amino)pyridine-4-carboxylic acid]	1000 to 10000 nM		≤ 100 nM	
O=C(O)c1ccncc1NCC1CCCc2cc(OCC3CCOCC3)ccc21 (stereo not shown) [Example 63, 3-({[6-(oxan-4-ylmethoxy)-1,2,3,4-tetrahydronaphthalen-1-yl]methyl}amino)pyridine-4-carboxylic acid]	100 to 1000 nM		> 10000 nM	
O=C(O)c1ccncc1NC[C@@H]1CCCc2cc(Oc3ccccc3Cl)ccc21 [Example 67, 3-({[(1R)-6-(2-chlorophenoxy)-1,2,3,4-tetrahydronaphthalen-1-yl]methyl}amino)pyridine-4-carboxylic acid]	100 to 1000 nM		100 to 1000 nM	
CN(c1ccc2c(c1)OCC[C@H]2CNc1cnccc1C(=O)O)c1ccc(Cl)cn1 [Example 152, 3-({[(4R)-7-[(5-chloropyridin-2-yl)(methyl)amino]-3,4-dihydro-2H-1-benzopyran-4-yl]methyl}amino)pyridine-4-carboxylic acid]	100 to 1000 nM		100 to 1000 nM	
CCOc1ccc(N(C)c2ccc3c(c2)OCC[C@H]3CNc2cnccc2C(=O)O)cc1 [Example 186, 3-({[(4R)-7-[(4-ethoxyphenyl)(methyl)amino]-3,4-dihydro-2H-1-benzopyran-4-yl]methyl}amino)pyridine-4-carboxylic acid]	100 to 1000 nM		≤ 100 nM	
COc1ccc(N(C)c2ccc3c(c2)CCC[C@H]3CNc2cnccc2C(=O)O)cn1 [Example 13, 3-({[(1R)-6-[(6-methoxypyridin-3-yl)(methyl)amino]-1,2,3,4-tetrahydronaphthalen-1-yl]methyl}amino)pyridine-4-carboxylic acid]	100 to 1000 nM		100 to 1000 nM	
CCCOc1ccc2c(c1)CCCC2CNc1cnccc1C(=O)O (stereo not shown) [Example 59, 3-{[(6-propoxy-1,2,3,4-tetrahydronaphthalen-1-yl)methyl]amino}pyridine-4-carboxylic acid]	100 to 1000 nM		1000 to 10000 nM	

Continued, in another order:

IC50 (JMJD2C)	fold more potent for JMJD3 than the R-enantiomer (JMJD3; S-enantiomer vs R-enantiomer)	IC50 [1]	SMILES	IC50 (JMJD3)
100 to 1000 nM		1000 to 10000 nM	Cc1cc2c(cc1C)C(CNc1cnccc1C(=O)O)CCO2 (stereo not shown) [Example 93, 3-{[(6,7-dimethyl-3,4-dihydro-2H-1-benzopyran-4-yl)methyl]amino}pyridine-4-carboxylic acid]	
100 to 1000 nM		> 10000 nM	O=C(O)c1ccncc1NCC1CCCc2cc(C3CCOCC3)ccc21 (stereo not shown) [Example 88, 3-({[6-(oxan-4-yl)-1,2,3,4-tetrahydronaphthalen-1-yl]methyl}amino)pyridine-4-carboxylic acid]	
100 to 1000 nM		100 to 1000 nM	O=C(O)c1ccncc1NC[C@@H]1CCCc2cc(Sc3ccccc3F)ccc21 [Example 73, 3-({[(1R)-6-[(2-fluorophenyl)sulfanyl]-1,2,3,4-tetrahydronaphthalen-1-yl]methyl}amino)pyridine-4-carboxylic acid]	
100 to 1000 nM		≤ 100 nM	CN(c1ccc(N2CCC2)cc1)c1ccc2c(c1)CCC[C@H]2CNc1cnccc1C(=O)O [Example 180, 3-({[(1R)-6-{[4-(azetidin-1-yl)phenyl](methyl)amino}-1,2,3,4-tetrahydronaphthalen-1-yl]methyl}amino)pyridine-4-carboxylic acid]	
100 to 1000 nM		1000 to 10000 nM	Cc1ccccc1Sc1ccc2c(c1)OCC[C@H]2CNc1cnccc1C(=O)O [Example 51, 3-({[(4R)-7-[(2-methylphenyl)sulfanyl]-3,4-dihydro-2H-1-benzopyran-4-yl]methyl}amino)pyridine-4-carboxylic acid]	
100 to 1000 nM		1000 to 10000 nM	COc1cc(N(C)c2ccc3c(c2)OCC[C@H]3CNc2cnccc2C(=O)O)ccc1F [Example 112, 3-({[(4R)-7-[(4-fluoro-3-methoxyphenyl)(methyl)amino]-3,4-dihydro-2H-1-benzopyran-4-yl]methyl}amino)pyridine-4-carboxylic acid]	
100 to 1000 nM		100 to 1000 nM	CN(c1ccc(C#N)cc1)c1ccc2c(c1)OCC[C@H]2CNc1cnccc1C(=O)O [Example 119, 3-({[(4R)-7-[(4-cyanophenyl)(methyl)amino]-3,4-dihydro-2H-1-benzopyran-4-yl]methyl}amino)pyridine-4-carboxylic acid]	
100 to 1000 nM		≤ 100 nM	CN(c1ccccc1)c1ccc2c(c1)CCOC2CNc1cnccc1C(=O)O (stereo not shown) [Example 146, 3-[({6-[methyl(phenyl)amino]-3,4-dihydro-1H-2-benzopyran-1-yl}methyl)amino]pyridine-4-carboxylic acid]	
100 to 1000 nM		100 to 1000 nM	CN(c1ccc(-n2cccn2)cc1)c1ccc2c(c1)OCC[C@H]2CNc1cnccc1C(=O)O [Example 189, 3-({[(4R)-7-{methyl[4-(1H-pyrazol-1-yl)phenyl]amino}-3,4-dihydro-2H-1-benzopyran-4-yl]methyl}amino)pyridine-4-carboxylic acid]	
100 to 1000 nM		100 to 1000 nM	Cc1c(F)cccc1-c1ccc2c(c1)OCC[C@H]2CNc1cnccc1C(=O)O [Example 42, 3-({[(4R)-7-(3-fluoro-2-methylphenyl)-3,4-dihydro-2H-1-benzopyran-4-yl]methyl}amino)pyridine-4-carboxylic acid]	
100 to 1000 nM		100 to 1000 nM	CN(c1cccc(C#N)c1)c1ccc2c(c1)OCC[C@H]2CNc1cnccc1C(=O)O [Example 117, 3-({[(4R)-7-[(3-cyanophenyl)(methyl)amino]-3,4-dihydro-2H-1-benzopyran-4-yl]methyl}amino)pyridine-4-carboxylic acid]	
100 to 1000 nM		≤ 100 nM	Cc1ccc(N(C)c2ccc3c(c2)OCC[C@H]3CNc2cnccc2C(=O)O)cc1C [Example 206, 3-({[(4R)-7-[(3,4-dimethylphenyl)(methyl)amino]-3,4-dihydro-2H-1-benzopyran-4-yl]methyl}amino)pyridine-4-carboxylic acid]	
≤ 100 nM		100 to 1000 nM	CN(c1cccnc1)c1ccc2c(c1)CCC[C@H]2CNc1cnccc1C(=O)O [Example 12, 3-({[(1R)-6-[methyl(pyridin-3-yl)amino]-1,2,3,4-tetrahydronaphthalen-1-yl]methyl}amino)pyridine-4-carboxylic acid]	
≤ 100 nM		≤ 100 nM	COc1ccc(N(C)c2ccc3c(c2)OCC[C@H]3CNc2cnccc2C(=O)O)cc1 [Example 178, 3-({[(4R)-7-[(4-methoxyphenyl)(methyl)amino]-3,4-dihydro-2H-1-benzopyran-4-yl]methyl}amino)pyridine-4-carboxylic acid]	
100 to 1000 nM		100 to 1000 nM	O=C(O)c1ccncc1NC[C@@H]1CCCc2cc(N(CCO)c3ccccc3)ccc21 [Example 147, 3-({[(1R)-6-[(2-hydroxyethyl)(phenyl)amino]-1,2,3,4-tetrahydronaphthalen-1-yl]methyl}amino)pyridine-4-carboxylic acid]	
100 to 1000 nM		≤ 100 nM	CN(c1ccc2c(c1)CCC[C@H]2CNc1cnccc1C(=O)O)c1cccs1 [Example 144, 3-({[(1R)-6-[methyl(thiophen-2-yl)amino]-1,2,3,4-tetrahydronaphthalen-1-yl]methyl}amino)pyridine-4-carboxylic acid]	
